Measurements: patent US9409905B2, “Antibacterial compounds and methods for use” (PTC THERAPEUTICS, INC., priority 2011, dated 2016)
Values after ≈ are worked out from the molar mass of the structure shown.

Legend:
[1] = tested on: Escherichia coli (E. coli) BAS849; assay: Antibacterial activity, microbroth dilution MIC (Table 1); type: cell-based; details: microbroth dilution, super sensitive Gram-negative E. coli BAS849, read-out: MIC, BAS849
Summary of the method: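 Read-out: visual absence of growth. The lowest concentration meeting this gives the MIC, expressed in μg/mL, with microbroth dilution as the method.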

[2] = tested on: Staphylococcus aureus (S. aureus) 29213; assay: as above; type: cell-based; details: microbroth dilution, Gram-positive S. aureus 29213, read-out: MIC, 29213
Summary of the method: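 Using broth microdilution, MIC endpoints (μg/mL) mark where visible growth no longer appears; the panel spans sensitive and control Gram-negative strains plus a Gram-positive strain.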

[3] = tested on: E. coli 25922; assay: as above; type: cell-based, Escherichia coli; details: Escherichia coli; microbroth dilution; control Gram-negative E. coli 25922 strain; read-out: MIC, 25922
Summary of the method: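 Each strain is exposed to test compound in a microbroth dilution series; visible growth is scored macroscopically, and the lowest growth-free concentration is recorded as MIC in μg/mL.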

[4] = tested on: E. coli LZ3111; assay: Antibacterial activity, MIC, quinolone resistant strain (Table 2); type: cell-based; details: Escherichia coli, LZ3111, read-out: MIC LZ3111
Summary of the method: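 Broth microdilution. Read-out: MIC in μg/mL, taken as lowest concentration with no macroscopically visible growth.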

[5] = tested on: Acinetobacter baumannii (A. baumannii) BAA747; assay: Antibacterial activity, MIC (Table 4); type: cell-based; details: A. baumannii BAA747, read-out: MIC, BAA747
Summary of the method: (§1)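 MIC in μg/mL by microbroth dilution, scored as the lowest level that suppresses visible growth.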

[6] = tested on: Klebsiella pneumoniae (K. pneumoniae) 35657; assay: Antibacterial activity, MIC (Table 4); type: cell-based; details: K. pneumoniae 35657, read-out: MIC, 35657
Summary of the method: as §1

[7] = tested on: A. baumannii MXX2240; assay: Antibacterial activity, MIC, resistant strain (Table 4); type: cell-based; details: Acinetobacter baumannii, MXX2240; resistant A. baumannii MMX2240, multi-drug resistant clinical isolate; read-out: MIC, MMX2240
Summary of the method: as §1

[8] = tested on: K. pneumoniae MXX1232; assay: as above; type: cell-based; details: Klebsiella pneumoniae, MXX1232; resistant K. pneumoniae MMX1232, multi-drug resistant clinical isolate; read-out: MIC, MMX1232
Summary of the method: as §1

[9] = tested on: Pseudomonas aeruginosa (P. aeruginosa) 27853; assay: Antibacterial activity, MIC (Table 5); type: cell-based; details: P. aeruginosa 27853, read-out: MIC, 27853
Summary of the method: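 Microbroth dilution; MIC (μg/mL) = lowest concentration with no macroscopically visible growth.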

With CCc1c(-c2cc3cc(F)c(C)cc3[nH]2)[nH]c(=O)c(C(=O)O)c1O [Cpd 385, 5-ethyl-6-(5-fluoro-6-methyl-1H-indol-2-yl)-4-hydroxy-2-oxo-1,2-dihydropyridine-3-carboxylic acid] the MIC [1] was < 1 µg/mL, the MIC [2] was 3.5 to 12.5 µg/mL (≈ 10.6 to 37.8 µM) and the MIC [3] was 12.5 to 150 µg/mL (≈ 37.8 to 454 µM). For the same molecule, the MIC [4] was 12.5 to 150 µg/mL (≈ 37.8 to 454 µM), the MIC [5] was 12.5 to 150 µg/mL (≈ 37.8 to 454 µM) and the MIC [6] was 12.5 to 150 µg/mL (≈ 37.8 to 454 µM). The MIC [7] was 12.5 to 150 µg/mL (≈ 37.8 to 454 µM), the MIC [8] was 12.5 to 150 µg/mL (≈ 37.8 to 454 µM) and the MIC [9] was 12.5 to 150 µg/mL (≈ 37.8 to 454 µM).
CCc1ccc2[nH]c(-c3[nH]c(=O)c(C(=O)O)c(O)c3C)cc2c1 [Cpd 386, 6-(5-ethyl-1H-indol-2-yl)-4-hydroxy-5-methyl-2-oxo-1,2-dihydropyridine-3-carboxylic acid] gave an MIC [1] of 3.5 to 12.5 µg/mL (≈ 11.2 to 40 µM), an MIC [2] of 12.5 to 150 µg/mL (≈ 40 to 480 µM) and an MIC [3] of 12.5 to 150 µg/mL (≈ 40 to 480 µM). The MIC [4] was 12.5 to 150 µg/mL (≈ 40 to 480 µM), the MIC [5] was 12.5 to 150 µg/mL (≈ 40 to 480 µM) and the MIC [6] was 12.5 to 150 µg/mL (≈ 40 to 480 µM). For the same molecule, the MIC [7] was 12.5 to 150 µg/mL (≈ 40 to 480 µM), the MIC [8] was 12.5 to 150 µg/mL (≈ 40 to 480 µM) and the MIC [9] was 12.5 to 150 µg/mL (≈ 40 to 480 µM).
Molecule CCc1ccc2cc(-c3[nH]c(=O)c(C(=O)O)c(O)c3C)[nH]c2c1 [Cpd 387, 6-(6-ethyl-1H-indol-2-yl)-4-hydroxy-5-methyl-2-oxo-1,2-dihydropyridine-3-carboxylic acid] has an MIC [1] of 1 to 3.5 µg/mL (≈ 3.2 to 11.2 µM), an MIC [2] of 12.5 to 150 µg/mL (≈ 40 to 480 µM) and an MIC [3] of 12.5 to 150 µg/mL (≈ 40 to 480 µM). The MIC [4] was 12.5 to 150 µg/mL (≈ 40 to 480 µM), the MIC [5] was 12.5 to 150 µg/mL (≈ 40 to 480 µM) and the MIC [6] was 12.5 to 150 µg/mL (≈ 40 to 480 µM). For the same molecule, the MIC [7] was 12.5 to 150 µg/mL (≈ 40 to 480 µM), the MIC [8] was 12.5 to 150 µg/mL (≈ 40 to 480 µM) and the MIC [9] was 12.5 to 150 µg/mL (≈ 40 to 480 µM).
Work on Cc1cc2[nH]c(-c3[nH]c(=O)c(C(=O)O)c(O)c3C)cc2cc1F [Cpd 388, 6-(5-fluoro-6-methyl-1H-indol-2-yl)-4-hydroxy-5-methyl-2-oxo-1,2-dihydropyridine-3-carboxylic acid] yielded an MIC [1] of 3.5 to 12.5 µg/mL (≈ 11.1 to 39.5 µM), an MIC [2] of 12.5 to 150 µg/mL (≈ 39.5 to 474 µM) and an MIC [3] of 12.5 to 150 µg/mL (≈ 39.5 to 474 µM). The MIC [4] was 12.5 to 150 µg/mL (≈ 39.5 to 474 µM), the MIC [5] was 12.5 to 150 µg/mL (≈ 39.5 to 474 µM) and the MIC [6] was 12.5 to 150 µg/mL (≈ 39.5 to 474 µM). The MIC [7] was 12.5 to 150 µg/mL (≈ 39.5 to 474 µM), the MIC [8] was 12.5 to 150 µg/mL (≈ 39.5 to 474 µM) and the MIC [9] was 12.5 to 150 µg/mL (≈ 39.5 to 474 µM).
Work on CCc1c(-c2ccc3cn(C)nc3c2)[nH]c(=O)c(C(=O)O)c1O [Cpd 389, 5-ethyl-4-hydroxy-6-(2-methyl-2H-indazol-6-yl)-2-oxo-1,2-dihydropyridine-3-carboxylic acid] yielded an MIC [1] of 3.5 to 12.5 µg/mL (≈ 11.2 to 39.9 µM), an MIC [2] of 12.5 to 150 µg/mL (≈ 39.9 to 479 µM) and an MIC [3] of 12.5 to 150 µg/mL (≈ 39.9 to 479 µM). For the same molecule, the MIC [4] was 3.5 to 12.5 µg/mL (≈ 11.2 to 39.9 µM), the MIC [5] was 12.5 to 150 µg/mL (≈ 39.9 to 479 µM) and the MIC [6] was 12.5 to 150 µg/mL (≈ 39.9 to 479 µM). For the same molecule, the MIC [7] was 3.5 to 12.5 µg/mL (≈ 11.2 to 39.9 µM), the MIC [8] was 12.5 to 150 µg/mL (≈ 39.9 to 479 µM) and the MIC [9] was 12.5 to 150 µg/mL (≈ 39.9 to 479 µM).
Molecule CCc1c(-c2ccc3cnn(C)c3c2)[nH]c(=O)c(C(=O)O)c1O [Cpd 390, 5-ethyl-4-hydroxy-6-(1-methyl-1H-indazol-6-yl)-2-oxo-1,2-dihydropyridine-3-carboxylic acid] has an MIC [1] of 12.5 to 150 µg/mL (≈ 39.9 to 479 µM), an MIC [2] of 12.5 to 150 µg/mL (≈ 39.9 to 479 µM) and an MIC [3] of 12.5 to 150 µg/mL (≈ 39.9 to 479 µM). For the same molecule, the MIC [4] was 3.5 to 12.5 µg/mL (≈ 11.2 to 39.9 µM), the MIC [5] was 12.5 to 150 µg/mL (≈ 39.9 to 479 µM) and the MIC [6] was 12.5 to 150 µg/mL (≈ 39.9 to 479 µM). The MIC [7] was 3.5 to 12.5 µg/mL (≈ 11.2 to 39.9 µM), the MIC [8] was 12.5 to 150 µg/mL (≈ 39.9 to 479 µM) and the MIC [9] was 12.5 to 150 µg/mL (≈ 39.9 to 479 µM).
Molecule CCc1c(-c2ccc3cn[nH]c3c2)[nH]c(=O)c(C(=O)O)c1O [Cpd 391, 5-ethyl-4-hydroxy-6-(1H-indazol-6-yl)-2-oxo-1,2-dihydropyridine-3-carboxylic acid] has an MIC [1] of 3.5 to 12.5 µg/mL (≈ 11.7 to 41.8 µM), an MIC [2] of 12.5 to 150 µg/mL (≈ 41.8 to 501 µM) and an MIC [3] of 12.5 to 150 µg/mL (≈ 41.8 to 501 µM). The MIC [4] was 3.5 to 12.5 µg/mL (≈ 11.7 to 41.8 µM), the MIC [5] was 12.5 to 150 µg/mL (≈ 41.8 to 501 µM) and the MIC [6] was 3.5 to 12.5 µg/mL (≈ 11.7 to 41.8 µM). The MIC [7] was 12.5 to 150 µg/mL (≈ 41.8 to 501 µM), the MIC [8] was 12.5 to 150 µg/mL (≈ 41.8 to 501 µM) and the MIC [9] was 12.5 to 150 µg/mL (≈ 41.8 to 501 µM).
CCc1c(-c2ccc3[nH]ncc3c2)[nH]c(=O)c(C(=O)O)c1O [Cpd 392, 5-ethyl-4-hydroxy-6-(1H-indazol-5-yl)-2-oxo-1,2-dihydropyridine-3-carboxylic acid] gave an MIC [1] of 3.5 to 12.5 µg/mL (≈ 11.7 to 41.8 µM), an MIC [2] of 12.5 to 150 µg/mL (≈ 41.8 to 501 µM) and an MIC [3] of 12.5 to 150 µg/mL (≈ 41.8 to 501 µM). It also gave an MIC [4] of 3.5 to 12.5 µg/mL (≈ 11.7 to 41.8 µM), an MIC [5] of 12.5 to 150 µg/mL (≈ 41.8 to 501 µM) and an MIC [6] of 3.5 to 12.5 µg/mL (≈ 11.7 to 41.8 µM). For the same molecule, the MIC [7] was 12.5 to 150 µg/mL (≈ 41.8 to 501 µM), the MIC [8] was 12.5 to 150 µg/mL (≈ 41.8 to 501 µM) and the MIC [9] was 12.5 to 150 µg/mL (≈ 41.8 to 501 µM).
In the case of CCc1c(-c2ccc3nn(C)cc3c2)[nH]c(=O)c(C(=O)O)c1O [Cpd 393, 5-ethyl-4-hydroxy-6-(2-methyl-2H-indazol-5-yl)-2-oxo-1,2-dihydropyridine-3-carboxylic acid], the MIC [1] is reported as < 1 µg/mL, the MIC [2] is reported as 12.5 to 150 µg/mL (≈ 39.9 to 479 µM) and the MIC [3] is reported as 3.5 to 12.5 µg/mL (≈ 11.2 to 39.9 µM). It also gave an MIC [4] of 3.5 to 12.5 µg/mL (≈ 11.2 to 39.9 µM), an MIC [5] of 3.5 to 12.5 µg/mL (≈ 11.2 to 39.9 µM) and an MIC [6] of 12.5 to 150 µg/mL (≈ 39.9 to 479 µM). It also gave an MIC [7] of 3.5 to 12.5 µg/mL (≈ 11.2 to 39.9 µM), an MIC [8] of 12.5 to 150 µg/mL (≈ 39.9 to 479 µM) and an MIC [9] of 12.5 to 150 µg/mL (≈ 39.9 to 479 µM).
Molecule Cc1c(-c2ccc3c(cnn3C)c2)[nH]c(=O)c(C(=O)O)c1O [Cpd 394, 4-hydroxy-5-methyl-6-(1-methyl-1H-indazol-5-yl)-2-oxo-1,2-dihydropyridine-3-carboxylic acid] has an MIC [1] of 3.5 to 12.5 µg/mL (≈ 11.7 to 41.8 µM), an MIC [2] of 12.5 to 150 µg/mL (≈ 41.8 to 501 µM) and an MIC [3] of 12.5 to 150 µg/mL (≈ 41.8 to 501 µM). The MIC [4] was < 1 µg/mL, the MIC [5] was 12.5 to 150 µg/mL (≈ 41.8 to 501 µM) and the MIC [6] was 12.5 to 150 µg/mL (≈ 41.8 to 501 µM). For the same molecule, the MIC [7] was < 1 µg/mL, the MIC [8] was 12.5 to 150 µg/mL (≈ 41.8 to 501 µM) and the MIC [9] was 12.5 to 150 µg/mL (≈ 41.8 to 501 µM).
